This note sets out measurements from ChEMBL document CHEMBL1151076, “Discovery of MK-0476, a potent and orally active leukotriene D4 receptor antagonist devoid of peroxisomal enxyme induction” (Bioorg Med Chem Lett, 1995).

Data set [1] concerns Mus musculus. Put plainly: Liver weight increase in mice after administration of 400 mg/kg perorally for 4 days was determined. It counts as functional. Particulars: route oral.
For data set [2], the system named is Mus musculus. Put plainly: Peroxisomal enzyme induction in mice after administration of 400 mg/kg perorally for 4 days was determined. It counts as functional. The conditions noted are these: route oral.
Data set [3] concerns the target T1, Cysteinyl leukotriene receptor 1 (Cavia porcellus, UniProt Q2NNR5).
T1 sequence (Q2NNR5 whole entry): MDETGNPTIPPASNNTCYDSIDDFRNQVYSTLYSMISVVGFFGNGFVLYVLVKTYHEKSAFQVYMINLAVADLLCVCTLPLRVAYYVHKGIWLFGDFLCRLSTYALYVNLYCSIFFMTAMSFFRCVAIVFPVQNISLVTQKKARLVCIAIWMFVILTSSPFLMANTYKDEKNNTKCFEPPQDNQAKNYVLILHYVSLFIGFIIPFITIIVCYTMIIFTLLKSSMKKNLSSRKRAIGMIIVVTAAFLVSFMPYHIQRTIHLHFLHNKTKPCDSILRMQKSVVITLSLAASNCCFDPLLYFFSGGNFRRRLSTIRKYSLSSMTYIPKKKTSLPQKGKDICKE
Put plainly: Concentration required for inhibition of binding of [3H]LTD4 to guinea pig lung membranes. Type of data set: tissue-based, Membrane.

Data set [4] has as its target T1, Cysteinyl leukotriene receptor 1. The experiment in a line: Concentration required for inhibition of binding of [3H]-LTD4 to guinea pig lung membranes (different expt). Type of data set: tissue-based, Membrane.
Data set [5] has as its system Mus musculus. Put plainly: Peroxisomal enzyme induction in mice after administration of 200 mg/kg perorally for 4 days was determined. It counts as functional. Particulars: route oral.
For data set [6], the system named is Mus musculus. Put plainly: Liver weight increase in mice after administration of 200 mg/kg perorally for 4 days was determined. It counts as functional. Particulars: route oral.
For another data set, the species on record is Cavia porcellus. The experiment in a line: Antagonistic activity of leukotriene D4-induced contractions of non-tonal guinea-pig trachea. Type of data set: functional, organism-based. The conditions noted are these: read-out: pA2 (converted).
The nature of data set [7]: Reduction of the increase in pulmonary resistance after 4 hr of administration of 0.01 mg/kg to squirrel monkey. It counts as functional.
Data set [8] in a line: Bioavailability in squirrel monkey. It counts as ADME, organism-based. The conditions noted are these: saimiri, in vivo; read-out: Bioavailabiility.
Data set [9] in a line: Reduction in the decrease in dynamic compliance after 4 hr of administration of 0.01 mg/kg to squirrel monkey. Type of data set: functional.
A short description of data set [10]: Terminal half-life was determined. It counts as ADME.

A word on the IC50: it is the concentration at which inhibition is half-maximal. For orientation: half-life means how long it takes for the measured level to halve.

On to `CCC(CC(=O)O)S[C@H](CCc1ccccc1C(C)(C)O)c1cccc(/C=C/c2ccc3ccc(Cl)cc3n2)c1` (some centres not stated), for which the LWI in the data set with Mus musculus [1] is listed as 9%. Further, the PEI in the data set with Mus musculus [2] was found to be 188%. Moreover, the IC50 in data set [3] worked out at 0.58 nM.

Regarding `CC(CS[C@H](CCc1ccccc1C(C)(C)O)c1cccc(/C=C/c2ccc3ccc(Cl)cc3n2)c1)CC(=O)O` (some centres not stated), the LWI with Mus musculus [1] amounted to 10%. Besides, the PEI with Mus musculus [2] turned out to be 18%. Moreover, the IC50 in data set [3] is 0.43 nM.

In the case of `CN(C)C(=O)CCSC(SCCC(=O)[O-])c1cccc(/C=C/c2ccc3ccc(Cl)cc3n2)c1.[Na+]` (configuration not stated), the LWI in the data set with Mus musculus [1] was determined as 38%. Also, the IC50 in data set [4] is 2.5 nM; in data set [3] it was 1.5 nM. Further, the PEI in the data set with Mus musculus [2] is given as 318%.

`CC[C@H](CS[C@H](CCc1ccccc1C(C)(C)O)c1cccc(/C=C/c2ccc3ccc(Cl)cc3n2)c1)C(=O)O` yielded an IC50 in [3] of 0.2 nM. Besides, the PEI in the data set with Mus musculus [5] worked out at 608%. Also, in the data set with Mus musculus [6], the LWI is listed as 63%.

In the case of `CC(C)(CC(=O)O)S[C@H](CCc1ccccc1C(C)(C)O)c1cccc(/C=C/c2ccc3ccc(Cl)cc3n2)c1`, in the data set on Mus musculus [1], the LWI is given as 3%. Besides, the PEI in the data set on Mus musculus [2] is on record as -10%. In data set [3], this compound registered an IC50 of 0.68 nM.

`CC(C)(CS[C@H](CCc1ccccc1C(C)(C)O)c1cccc(/C=C/c2ccc3ccc(Cl)cc3n2)c1)CC(=O)O`: the LWI with Mus musculus [1] is reported as 2%. For the same compound, in the data set on Mus musculus [2], the PEI was 25%. Moreover, in data set [3], the IC50 came out at 0.3 nM.

The compound `CN(C)C(=O)CCS[C@H](SCCC(=O)[O-])c1cccc(/C=C/c2ccc3ccc(Cl)cc3n2)c1.[Na+]` registered an LWI in the data set with Mus musculus [1] of 0%. For the same compound, the PEI in the data set on Mus musculus [2] turned out to be 65%. This compound also came in with an IC50 in data set [3] of 3.1 nM.

In turn, `C[C@@H](CC(=O)O)S[C@H](CCc1ccccc1C(C)(C)O)c1cccc(/C=C/c2ccc3ccc(Cl)cc3n2)c1` registered an LWI in the data set on Mus musculus [1] of 11%. For the same compound, in the data set on Mus musculus [2], the PEI turned out to be 24%. Moreover, in data set [3], the 50% inhibitory concentration (IC50) was 0.33 nM.

`C[C@H](CC(=O)O)S[C@H](CCc1ccccc1C(C)(C)O)c1cccc(/C=C/c2ccc3ccc(Cl)cc3n2)c1` had an LWI in the data set with Mus musculus [1] of 12%. Also, the PEI with Mus musculus [2] was found to be 109%. In addition, the IC50 in data set [3] was 0.6 nM.

For `CC(S[C@H](CCc1ccccc1C(C)(C)O)c1cccc(/C=C/c2ccc3ccc(Cl)cc3n2)c1)C(C)C(=O)O` (some centres not stated), the LWI with Mus musculus [1] is reported as 27%. The PEI in the data set with Mus musculus [2] stood at 673%. Also, the IC50 in data set [3] worked out at 0.44 nM.

`C[C@H](S[C@H](CCc1ccccc1C(C)(C)O)c1cccc(/C=C/c2ccc3ccc(Cl)cc3n2)c1)[C@@H](C)C(=O)O` registered an LWI in the data set on Mus musculus [1] of 32%. In the data set with Mus musculus [2], the PEI came out at 393%. Also, in data set [3], the IC50 was 2.3 nM.

As for `C[C@H](C(=O)O)[C@@H](C)S[C@H](CCc1ccccc1C(C)(C)O)c1cccc(/C=C/c2ccc3ccc(Cl)cc3n2)c1`, in the data set on Mus musculus [1], the LWI was 10%. The PEI with Mus musculus [2] is on record as 91%. In data set [3], this compound registered an IC50 of 0.3 nM.

In [3], `CC(CC(=O)O)S[C@H](CCc1ccccc1C(C)(C)O)c1cccc(/C=C/c2ccc3ccc(Cl)cc3n2)c1` (some centres not stated) showed an IC50 of 0.79 nM. In addition, the PEI in the data set with Mus musculus [5] turned out to be 22%. In the data set on Mus musculus [6], this compound returned an LWI of 5%.

Consider `CC(C)(O)c1ccccc1CC[C@@H](SCC1(CC(=O)O)CC1)c1cccc(/C=C/c2ccc3ccc(Cl)cc3n2)c1` [MONTELUKAST], for which the Kb in the data set filed under Cavia porcellus was 0.501 nM. The compound further displayed an LWI in the data set on Mus musculus [1] of 0%. In addition, the PEI with Mus musculus [2] was determined as 16%. For the same compound, the Reduction in [7] was found to be 56%; in data set [9], 78%. The bioavailability in data set [8] turned out to be 42%. Also, the half-life in data set [10] is 4 h.
